# Laboratory results published in US12054486B2, “Pyridine derivatives and their use as sodium channel activators” (Xenon Pharmaceuticals Inc., priority 2021, dated 2024).
# Structures can show the parent of a compound that is named as a salt.
# Molecular target: sodium channel isoforms of interest stably expressed in Human Embryonic Kidney Cells (voltage-gated sodium channel, particularly NaV1.1) (Homo sapiens, UniProt P35498)
# Experiment: automated planar patch clamp assay of sodium channel gating (area under the sodium current trace)
# Format: cell-based
# Conditions: HEK cells, voltage step from −120 mV to 0 mV, increasing concentrations
# From the text: A typical assay described in Crestey, F. et al., ACS Chem Neurosci (2015), Vol. 6, pp. 1302-1308, AA43279 (Frederiksen, K. et al., Eur J Neurosci (2017), Vol. 46, pp. 1887-1896) and Lu AE98134 (von Schoubyea, N. L. et al., Neurosci Lett (2018), Vol. 662, pp. 29-35) employs the use of automated planar patch clamp techniques to study the effects of the chemical agent on the gating of sodium channels. The sodium channel isoforms of interest are stably expressed in Human Embryonic Kidney Cells and the currents that flow through those channels in response to a depolarizing voltage clamp step from −120 mV to 0 mV are measured in the presence of increasing concentrations of the chemical agents. The area under the sodium current trace which correlates to the magnitude of sodium flux through the cell membrane is used to quantify the effects on gating of the channels. Other parameters that are measured in the assay include the peak current, time constant of open state inactivation and the voltage dependence of steady state inactivation properties. The concentration responses are used to determine potency of each chemical agents effects on modulating the sodium channel isoform gating. Such techniques are known to those skilled in the art, and may be developed, using current technologies, into low or medium throughput assays for evaluating compounds for their ability to modulate sodium channel behaviour.
# As disclosed above, typical assays for testing compounds of the disclosure are known, for example as disclosed in Crestey, F. et al., ACS Chem Neurosci (2015), Vol. 6, pp. 1302-1308, AA43279 (Frederiksen, K. et al., Eur J Neurosci (2017), Vol. 46, pp. 1887-1896) and Lu AE98134 (von Schoubyea, N. L. et al., Neurosci Lett (2018), Vol. 662, pp. 29-35) which employs the use of automated planar patch clamp techniques to study the effects of the chemical agent on the gating of sodium channels. The sodium channel isoforms of interest are stably expressed in Human Embryonic Kidney Cells and the currents that flow through those channels in response to a depolarizing voltage clamp step from −120 mV to 0 mV are measured in the presence of increasing concentrations of the chemical agents. The area under the sodium current trace which correlates to the magnitude of sodium flux through the cell membrane is used to quantify the effects on gating of the channels. Other parameters that are measured in the assay include the peak current, time constant of open state inactivation and the voltage dependence of steady state inactivation properties. The concentration responses are used to determine potency of each chemical agents effects on modulating the sodium channel isoform gating.
SMILES,EC50 [µM],Empirical Emax
"Fc1ccc(F)c(-c2ccnc(N3CC[C@H](F)C3)c2-c2nc3cnc(Cl)cc3[nH]2)c1 [Example 1, (S)-6-chloro-2-(4-(2,5-difluorophenyl)-2-(3-fluoropyrrolidin-1-yl)pyridin-3-yl)-1H-imidazo[4,5-c]pyridine]",< 1,++++ (++++ indicates a value greater than 7.5)
"Fc1ccccc1-c1ccnc(N2CCCC2)c1-c1nc2ncccc2[nH]1 [Example 2, 2-(4-(2-fluorophenyl)-2-(pyrrolidin-1-yl)pyridine-3-yl)-1H-imidazo[4,5-b]pyridine]",1 to 10,++++ (++++ indicates a value greater than 7.5)
"Fc1ccccc1-c1ccnc(N2CCCC2)c1-c1nc2ccccc2[nH]1 [Example 3, 2-(4-(2-fluorophenyl)-2-(pyrrolidin-1-yl)pyridin-3-yl)-1H-benzo[d]imidazole]",1 to 10,++++ (++++ indicates a value greater than 7.5)
"Nc1nnc(-c2c(-c3ccccc3F)ccnc2N2CCCC2)o1 [Example 4, 5-(4-(2-fluorophenyl)-2-(pyrrolidin-1-yl)pyridin-3-yl)-1,3,4-oxadiazol-2-amine]",≥ 50,+++ (+++ indicates a value from 5.0 up to 7.5 μM)
"CC(C)CC1CN=C(c2c(-c3ccccc3F)ccnc2N2CCCC2)N1 (stereo not shown) [Example 5, 4-(2-fluorophenyl)-3-(5-isobutyl-4,5-dihydro-1H-imidazol-2-yl)-2-(pyrrolidin-1-yl)pyridine]",1 to 10,+ (+ indicates a value less than 2.0 μM)
"Clc1ccccc1-c1ccnc(N2CCCC2)c1-c1nc2ccccc2[nH]1 [Example 6, 2-(4-(2-chlorophenyl)-2-(pyrrolidin-1-yl)pyridin-3-yl)-1H-benzo[d]imidazole]",1 to 10,++ (++ indicates a value from 2.0 up to 5.0 μM)
"Cc1ccccc1-c1ccnc(N2CCCC2)c1-c1nc2ccccc2[nH]1 [Example 7, 2-(2-(pyrrolidin-1-yl)-4-(o-tolyl)pyridin-3-yl)-1H-benzo[d]imidazole]",1 to 10,++ (++ indicates a value from 2.0 up to 5.0 μM)
"Cc1ccccc1-c1ccnc(N2CCOCC2)c1-c1nc2ccccc2[nH]1 [Example 8, 4-(3-(1H-benzo[d]imidazol-2-yl)-4-(o-tolyl)pyridin-2-yl)morpholine]",10 to 50,+++ (+++ indicates a value from 5.0 up to 7.5 μM)
"Fc1ccccc1-c1ccnc(N2CC[C@H](F)C2)c1-c1nnco1 [Example 9, (S)-2-(4-(2-fluorophenyl)-2-(3-fluoropyrrolidin-1-yl)pyridin-3-yl)-1,3,4-oxadiazole]",≥ 50,++ (++ indicates a value from 2.0 up to 5.0 μM)
"c1ccc(-c2ccnc(N3CCCC3)c2-c2nc3ccccc3[nH]2)nc1 [Example 10, 2-(2′-(pyrrolidin-1-yl)-[2,4′-bipyridin]-3′-yl)-1H-benzo[d]imidazole]",10 to 50,++ (++ indicates a value from 2.0 up to 5.0 μM)
"Fc1ccccc1-c1ccnc(N2CCCC2)c1-c1nc2ccncc2[nH]1 [Example 11, 2-(4-(2-fluorophenyl)-2-(pyrrolidin-1-yl)pyridin-3-yl)-3H-imidazo[4,5-c]pyridine Formic Acid Salt]",1 to 10,++++ (++++ indicates a value greater than 7.5)
"CCCCNc1nnc(-c2c(-c3ccccc3F)ccnc2N2CC[C@H](F)C2)o1 [Example 12, (S)—N-butyl-5-(4-(2-fluorophenyl)-2-(3-fluoropyrrolidin-1-yl)pyridin-3-yl)-1,3,4-oxadiazol-2-amine]",10 to 50,++ (++ indicates a value from 2.0 up to 5.0 μM)
"CC(C)CCc1nnc(-c2c(-c3ccccc3O)ccnc2N2CC[C@H](F)C2)o1 [Example 13, (S)-2-(2-(3-fluoropyrrolidin-1-yl)-3-(5-isopentyl-1,3,4-oxadiazol-2-yl)pyridin-4-yl)phenol]",≥ 50,+ (+ indicates a value less than 2.0 μM)
"F[C@H]1CCN(c2nccc(C3=CCCC3)c2-c2nc3ccccc3[nH]2)C1 [Example 14, (S)-2-(4-(cyclopent-1-en-1-yl)-2-(3-fluoropyrrolidin-1-yl)pyridin-3-yl)-1H-benzo[d]imidazole]",1 to 10,++ (++ indicates a value from 2.0 up to 5.0 μM)
"Fc1cccnc1-c1ccnc(N2CCCC2)c1-c1nc2ccccc2[nH]1 [Example 15, 2-(3-fluoro-2′-(pyrrolidin-1-yl)-[2,4′-bipyridin]-3′-yl)-1H-benzo[d]imidazole]",10 to 50,++++ (++++ indicates a value greater than 7.5)
"c1ccc(-c2ccnc(N3CCCC3)c2-c2nc3ccccc3[nH]2)cc1 [Example 16, 2-(4-phenyl-2-(pyrrolidin-1-yl)pyridin-3-yl)-1H-benzo[d]imidazole]",1 to 10,+++ (+++ indicates a value from 5.0 up to 7.5 μM)
"F[C@H]1CCN(c2nccc(-c3ccccc3)c2-c2nc3ccccc3[nH]2)C1 [Example 17, (S)-2-(2-(3-fluoropyrrolidin-1-yl)-4-phenylpyridin-3-yl)-1H-benzo[d]imidazole]",1 to 10,++++ (++++ indicates a value greater than 7.5)
"Fc1ccccc1-c1ccnc(N2CC[C@H](F)C2)c1-c1nc2ccccc2[nH]1 [Example 18, (S)-2-(4-(2-fluorophenyl)-2-(3-fluoropyrrolidin-1-yl)pyridin-3-yl)-1H-benzo[d]imidazole]",1 to 10,++++ (++++ indicates a value greater than 7.5)
"F[C@H]1CCN(c2nccc(-c3ccccc3)c2-c2cc(-c3cccnc3)[nH]n2)C1 [Example 19, (S)-2-(3-fluoropyrrolidin-1-yl)-4-phenyl-3-(5-(pyridin-3-yl)-1H-pyrazol-3-yl)pyridine]",10 to 50,++ (++ indicates a value from 2.0 up to 5.0 μM)
"CC(C)c1ccc(-c2cc(-c3c(-c4ccccc4)ccnc3N3CC[C@H](F)C3)n[nH]2)cc1 [Example 20, (S)-2-(3-fluoropyrrolidin-1-yl)-3-(5-(4-isopropylphenyl)-1H-pyrazol-3-yl)-4-phenylpyridine]",10 to 50,++ (++ indicates a value from 2.0 up to 5.0 μM)
"Fc1cc(F)cc(-c2ccnc(N3CCCC3)c2-c2nc3ccccc3[nH]2)c1 [Example 23, 2-(4-(3,5-difluorophenyl)-2-(pyrrolidin-1-yl)pyridin-3-yl)-1H-benzo[d]imidazole]",1 to 10,++ (++ indicates a value from 2.0 up to 5.0 μM)
"F[C@H]1CCN(c2nccc(-c3ccccc3)c2C2=N[C@@H]3CCCC[C@H]3N2)C1 [Example 24, (3aR,7aR)-2-(2-((S)-3-fluoropyrrolidin-1-yl)-4-phenylpyridin-3-yl)-3a,4,5,6,7,7a-hexahydro-1H-benzo[d]imidazole]",1 to 10,+ (+ indicates a value less than 2.0 μM)
"c1ccc(-c2ccnc(N3CCOCC3)c2C2=N[C@@H]3CCCC[C@H]3N2)cc1 [Example 25, 4-(3-((3aR,7aR)-3a,4,5,6,7,7a-hexahydro-1H-benzo[d]imidazol-2-yl)-4-phenylpyridin-2-yl)morpholine]",1 to 10,+ (+ indicates a value less than 2.0 μM)
